Test results as given in US8343987B2, “Heterocyclic derivatives” (Bayer Intellectual Property GmbH, priority 2004, dated 2013).

The compounds below were run against T1, human neutrophil elastase (HNE) (Homo sapiens, UniProt P08246) (assay: In vitro inhibition of HNE using a fluorogenic peptide substrate (Example I-A)). Conditions: substrate MeOSuc-Ala-Ala-Pro-Val-AMC, continuous read-out, 384 MTP format.
T1 construct: purchased SERVA Electrophoresis GmbH, Heidelberg, Germany #20927.01
T1 sequence (P08246 30-267): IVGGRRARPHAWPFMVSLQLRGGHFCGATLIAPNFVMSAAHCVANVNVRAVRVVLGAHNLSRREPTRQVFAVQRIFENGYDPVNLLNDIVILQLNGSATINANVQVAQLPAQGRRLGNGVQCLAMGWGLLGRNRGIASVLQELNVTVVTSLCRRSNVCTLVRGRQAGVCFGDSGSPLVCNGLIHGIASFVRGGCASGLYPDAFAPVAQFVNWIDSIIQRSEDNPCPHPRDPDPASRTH
Assay type: biochemical
Experimental: The test solution is prepared by mixing 10 μl of test compound dilution, 20 μl of HNE enzyme dilution (final concentration 8-0.4 μU/ml, routinely 2.1 μU/ml) and 20 μl of substrate dilution (final concentration 1 mM-1 μM, routinely 20 μM), respectively. The solution is incubated for 0-2 hrs at 37° C. (routinely one hour). The fluorescence of the liberated AMC due to the enzymatic reaction is measured at 37° C. (TECAN spectra fluor plus plate reader). […] IC50 values are determined by RFU-versus-[I] plots. Km and Km(app.) values are determined by Lineweaver-Burk plots and converted to K1 values by Dixon plots.

IC50 [µM]	Compound
0.03	CC1=C(C(=O)c2ccco2)C(c2ccc(C#N)cc2)N(Cc2cccc(C(=O)O)c2)C(=O)N1c1cccc(C(F)(F)F)c1 (stereo not shown) [Example 44]
0.02	CC1=C(C(=O)c2cccnc2)C(c2ccc(C#N)cc2)N(CC(=O)NS(=O)(=O)CC(F)(F)F)C(=O)N1c1cccc(C(F)(F)F)c1 (stereo not shown) [Example 55, 2-[6-(4-Cyanophenyl)-4-methyl-2-oxo-5-(pyridin-3-ylcarbonyl)-3-[3-(trifluoromethyl)phenyl]-3,6-dihydropyrimidin-1(2H)-yl]-N-[(2,2,2-trifluoroethyl)sulfonyl]acetamide]
0.01	CC(=O)C1=C(C)N(c2cccc(C(F)(F)F)c2)C(=O)N(CC(=O)NS(=O)(=O)c2ccc(C#N)cc2)[C@@H]1c1ccc(C#N)cc1 [Example 74]
0.12	CC1=C(C(=O)O)C(c2ccc(C#N)cc2)N(Cc2cccc(/C=C/C(=O)O)c2)C(=O)N1c1cccc(C(F)(F)F)c1 (stereo not shown) [Example 39, 3-{3-[(E)-2-Carboxyvinyl]benzyl}-4-(4-cyanophenyl)-6-methyl-2-oxo-1-[3-(trifluoromethyl)-phenyl]-1,2,3,4-tetrahydropyrimidine-5-carboxylic acid]
0.03	COC(=O)c1cccc(CN2C(=O)N(c3cccc(C(F)(F)F)c3)C(C)=C(C(C)=O)C2c2ccc(C#N)cc2)c1 (stereo not shown) [Example 1, Methyl 3-{[5-acetyl-6-(4-cyanophenyl)-4-methyl-2-oxo-3-[3-(trifluoromethyl-)phenyl]-3,6-dihydropyrimidin-1(2H)-yl]methyl}benzoate]
0.02	CC(=O)C1=C(C)N(c2cccc(C(F)(F)F)c2)C(=O)N(Cc2ccc(C(CC(C)C)C(=O)O)cc2)C1c1ccc(C#N)cc1 (stereo not shown) [Example 19]
0.02	CC1=C(C(=O)c2ccco2)C(c2ccc(C#N)cc2)N(CC(=O)O)C(=O)N1c1cccc(C(F)(F)F)c1 (stereo not shown) [Example 29A, [6-(4-Cyanophenyl)-5-(2-furoyl)-4-methyl-2-oxo-3-[3-(trifluoromethyl)pheny-l]-3,6-dihydropyrimidin-1(2H)-yl]acetic acid]
0.07	C=CCOC(=O)C1=C(C)N(c2cccc(C(F)(F)F)c2)C(=O)N(CC(=O)NS(=O)(=O)c2ccc(C(F)(F)F)cc2)C1c1ccc(C#N)cc1 (stereo not shown) [Example 67]
0.01	CC(=O)C1=C(C)N(c2cccc(C(F)(F)F)c2)C(=O)N(/C=C/C(=O)O)C1c1ccc(C#N)cc1 (stereo not shown) [Example 24]
0.07	CC1=C(C#N)C(c2ccc(C#N)nc2)NC(=O)N1c1cccc(C(F)(F)F)c1 (stereo not shown) [Example 19A, 4-(6-Cyanopyridin-3-yl)-6-methyl-2-oxo-1-[3-(trifluoromethyl)phenyl]-1,2,3-,4-tetrahydro-pyrimidine-5-carbonitrile]
0.008	CC(=O)C1=C(C)N(c2cccc(C(F)(F)F)c2)C(=O)N(Cc2ccc(C(=O)O)cc2)[C@@H]1c1ccc(C#N)cc1 [Example 22]
0.13	C=CCOC(=O)C1=C(C)N(c2cccc(C(F)(F)F)c2)C(=O)N(C2(C(=O)OCC)CC2)C1c1ccc(C#N)cc1 (stereo not shown) [Example 61]
0.01	CC1=C(C(=O)c2cccnc2)C(c2ccc(C#N)cc2)N(CC(=O)O)C(=O)N1c1cccc(C(F)(F)F)c1 (stereo not shown) [Example 31A, [6-(4-Cyanophenyl)-4-methyl-2-oxo-5-(pyridin-3-ylcarbonyl)-3-[3-(trifluoro-methyl)phenyl]-3,6-dihydropyrimidin-1(2H)-yl]acetic acid]
0.06	CC1=C(C(=O)c2cccnc2)C(c2ccc(C#N)cc2)NC(=O)N1c1cccc(C(F)(F)F)c1 (stereo not shown) [Example 21A, 4-{6-Methyl-2-oxo-5-(pyridin-3-ylcarbonyl)-1-[3-(trifluoromethyl)phenyl]-1-,2,3,4-tetrahydro-pyrimidin-4-yl}benzonitrile]

What follows are compounds tested on human polymorphonuclear cells (PMNs) (assay: In vitro PMN elastolysis assay (Example II-A)). Conditions: at 1.2 μM; mean±s.e.m.; n=3 different donors at 3.6×10^5 cells per well.
Assay type: cell-based
Experimental: This assay is used to determine the elastolytic potential of human polymorphonuclear cells (PMNs) and assess the proportion of degradation due to neutrophil elastase [cf. Z. W. She et al., Am. J. Respir. Cell. Mol. Biol. 9386-392 (1993)].
Tritiated elastin, in suspension, is coated on to a 96 well plate at 10 μg per well. Test and reference [ZD-0892 (J. Med. Chem. 40, 1876-1885, 3173-3181 (1997), WO 95/21855) and α1 protease inhibitor (α1PI)] compounds are added to the wells at the appropriate concentrations. Human PMNs are separated from peripheral venous blood of healthy donors and resuspended in culture media. The neutrophils are added to the coated wells at concentrations ranging between […] cells per well. Porcine pancreatic elastase (1.3 μM) is used as a positive control for the assay, and α1PI (1.2 μM) is used as the positive inhibitor of neutrophil elastase. The cellular control is PMNs without compound at each appropriate cell density. The cells plus compounds are incubated in a humidified incubator at 37° C. for 4 hours. The plates are centrifuged to allow the harvest of cell supernatant only. The supernatant is transferred in 75 μl volumes to corresponding wells of a 96 well Lumaplate™ (solid scintillant containing plates). The plates are dried until no liquid is visible in the wells and read in a beta counter for 3 minutes per well. […]

Compound	inhibition of 3H-elastin elastolysis [%]
α1PI: α1 protease inhibitor, used as the positive inhibitor of neutrophil elastase	83.46±3.97

Same assay, conditions: mean±s.e.m.; n=2 different donors at 3.6×10^5 cells per well

IC50 [µM]	Compound
0.0455 ± 0.00775	COc1ccc(C(=O)N[C@H](C(=O)N2CCC[C@H]2C(=O)N[C@H](C(=O)C(F)(F)F)C(C)C)C(C)C)cc1 [ZD-0892]
